# Assay results as given in patent US9084419B2, “Method for reducing temperature stress of plants” (SUMITOMO CHEMICAL COMPANY, LIMITED, priority 2009, dated 2015).
# Columns and labels:
# roots = conditions: known from JP 4,087,942, JP 2001-139405, Plant and Soil 255: 67-75 (2003); cited from earlier work
# [1] = system: Tomato (cultivar: Micro-Tom); assay: Reduction of high temperature stress by tomato soil irrigation treatment (fruit setting rate); type: in vivo; conditions: soil irrigation twice, 50 ml per seedling; 40° C. (day)/30° C. (night) for 7 days; 13 days after stress
# Experimental: Tomato seeds (cultivar: Micro-Tom) were sown in the growing soil (AISAI) in a plastic pot and then cultivated in a greenhouse (set at a temperature of 25° C.) for about 4 weeks. A soil irrigation treatment was carried out twice, using an aqueous solution of a sodium salt of the compound A in an amount of 50 ml per seedling, on the 15th day and the 22nd day after seeding. As a control, a soil irrigation treatment was carried out using distilled water in an amount of 50 ml per seedling to form a non-treated group. After the irrigation treatment, plants cultivated up to the period when a 1st flower cluster blooms (1 to 2 flowers bloom(s), on the 32nd day after seeding) were cultivated for 7 days under the conditions of a temperature of 40° C. (day)/30° C. (night), a humidity of 63% (day)/70% (night), an illuminance of 7,100 lx, and a day length of 16 hours in the stress exposed group, while plants were cultivated for 7 days in a greenhouse (set at a temperature of 25° C.) in the stress non-exposed group. After the stress test, the test plants were cultivated for 13 days in a greenhouse (set at a temperature of 25° C.), the number of flower setting and the number of fruit setting were counted to determine a fruit setting rate (%) (number of fruit setting/number of flower setting×100).
# wheat (cultivar: Apogee) [2] = assay: Reduction of high temperature stress by wheat foliage spraying treatment (plant weight); type: in vivo; conditions: foliage spray, 0.5 mg in 50 ml; 45° C., 17 hours; 4 days after stress
# Experimental: Wheat (cultivar: Apogee) seeds were sown in the growing soil (AISAI) in a plastic pot ([…]×58 mm in height) and then cultivated for one week under the conditions of a temperature of 20 to 25° C., a humidity of 50 to 75%, an illuminance of 5,300 lx, and a day length of 16 hours.
# A flowable formulation of the compound A was obtained by adding about 120 mg of a mixture of white carbon and a polyoxyethylene alkyl ether sulfate ammonium salt (weight ratio of 1:1) and 300 μl of water to 0.5 mg of the compound A, followed by fine grinding using a wet grinding method. The obtained flowable formulation was diluted with 50 ml of water to obtain a spray liquid. After adding 0.2% RINO as a sticker to the spray liquid, a sufficient amount (45 ml per 6 pots) was sprayed using an automatic spraying machine. As a control, a flowable formulation not containing the compound A was prepared and then sprayed to the non-treated group. Under the conditions of a temperature of 20 to 25° C., a humidity of 50 to 75%, an illuminance of 5,300 lx, and a day length of 16 hours, cultivation was carried out for 2 days.
# The above test plants having been subjected to the spraying treatment were put in an artificial climate chamber set to the following conditions, and a stress test was carried out.
# Temperature: 45° C., 17 hours, Illuminance: 6,500 to 7,900 lx, and Humidity: 50%. […]
# wheat (cultivar: Apogee) [3] = assay: Reduction of high temperature stress by wheat seed treatment (plant weight), Test Example 2; type: in vivo; conditions: 40° C. (day)/30° C. (night) for 14 days; for Fresh weight of the above-ground part: 32nd day after seeding
# Experimental: A Blank slurry solution containing 5% (V/V) color coat red (Becker Underwood, Inc.), 5% (V/V) CF-Clear (Becker Underwood, Inc.) and 0.4% Maxim XL (Syngenta) was prepared. A sodium salt of the compound A was dissolved in the Blank slurry to obtain a slurry solution so as to control the amount of the sodium salt within a range from 0.5 mg to 2 mg per 1 g of seeds. Using a seed treating machine (HEGE11, manufactured by Hans-Ulrich Hege), seed coating was carried out by mixing 1.3 ml of the slurry solution with 50 g of wheat seeds (cultivar: Apogee) and the seeds were dried. As a control, seed coating was carried out using the Blank slurry solution in place of the slurry solution to obtain seeds for non-treated group. The coated seeds (5 seeds each) were sown in the growing soil (AISAI) in a plastic pot and then cultivated for 18 days under the conditions of a temperature of 20 to 25° C., a humidity of 50 to 75%, an illuminance of 5,300 lx, and a day length of 16 hours. Before the stress test, thinning was carried out to control the number of seedlings to 3 per pot. The above test plants on the 18th day after seeding were cultivated for 14 days under the conditions of a temperature of 40° C. (day)/30° C. (night), a humidity of 63% (day)/70% (night), an illuminance of 7,100 lx, and a day length of 16 hours. After the stress test, on the 32nd day after seeding, fresh weight of the above-ground part of test plants was examined for 4 to 7 pots.
# [4] = system: Rice (cultivar: NIHOMBARE); assay: Reduction of low temperature stress in hydroponics of rice; type: in vivo; conditions: hydroponic culture medium; stress exposed group, 2 to 4° C. for 3 to 7 days
# Experimental: Rice seeds (cultivar: NIHOMBARE) are immersed in distilled water containing 1,000 ppm of Benlate and then incubated at 30° C. for one day. The seeds are washed with distilled water, incubated in distilled water for one day and then subjected to a forced germination treatment. In the bottom of a 288-well plug tray, cotton wool is spread and then the seeds subjected to the forced germination treatment are sown. A hydroponic culture medium (8-fold diluted Kimura B hydroponic culture solution) is added thereto, followed by cultivation for 3 to 10 days under the conditions of a temperature of 28° C. (day)/23° C. (night), a humidity of 60%, an illuminance of 7,100 lx, and a day length of 12 hours. A DMSO solution having a concentration 1,000 times of each test concentration of any one of the compounds A to G is prepared and then diluted with a hydroponic culture medium. An aqueous solution (250,000 ppm) of a sodium salt of the compound A is diluted with the hydroponic culture medium to prepare a liquid having a test concentration. The above rice seedling is transferred to these hydroponic culture media containing the compound, and then cultivated for 7 to 10 days under the conditions of a temperature of 28° C. (day)/23° C. (night), a humidity of 60%, an illuminance of 7,100 lx, and a day length of 12 hours. Using a hydroponic culture medium containing 0.1% DMSO added therein as a control of any one of the compounds A to G and using a hydroponic culture medium as a control of the sodium salt of the compound A, the above rice seedlings are cultivated to form a non-treated group. The seedlings during the treatment with the present compound are cultivated for 3 to 7 days under the conditions of a temperature of 2 to 4° C., a humidity of 40 to 70%, an illuminance of 3,500 lx, and a day length of 12 hours in the stress exposed group, and under the conditions of a temperature of 25 to 30° C., a humidity of 50 to 75%, an illuminance of 4,500 lx, and a day length of 12 hours in the stress non-exposed group. After the stress test, the plant length and the weight of the above-ground part are examined. Using a pulse modulation chlorophyll fluorometer (MAXI-IMAGING-PAM, WALZ), the chlorophyll fluorescence (Fv/Fm) is measured.
# wheat (cultivar: Apogee) [5] = assay: Reduction of high temperature stress by wheat seed treatment (plant weight), Test Example 10; type: in vivo; conditions: seed coating 5 mg per 1 g of seeds; 36° C. (day)/32° C. (night) for 19 days; 36th day after seeding
# Experimental: A Blank slurry solution containing 5% (V/V) color coat red (Becker Underwood, Inc.), 5% (V/V) CF-Clear (Becker Underwood, Inc.) and 0.4% Maxim XL (Syngenta) was prepared. The compound C (methyl 4-oxo-4-(2-phenylethyl)aminobutyrate) or the compound E (5-oxo-5-[2-(3-indolyl)ethyl]aminovaleric acid) was dissolved in the Blank slurry to obtain a slurry solution so as to control the amount of the compound to be 5 mg per 1 g of seeds. Using a 50-ml conical tube, seed coating was carried out by mixing 1.3 ml of the slurry solution with 50 g of wheat seeds (cultivar: Apogee) and the seeds were dried. As a control, seed coating was carried out using the Blank slurry solution in place of the slurry solution to obtain seeds for non-treated group. The coated seeds (5 seeds each) were sown in the growing soil (AISAI) in a plastic pot and then cultivated in a greenhouse (set at a temperature of 18° C. (day)/15° C. (night)) for 17 days. Before the stress test, thinning was carried out to control the number of seedlings to 3 per pot.
# The above test plants on the 17th day after seeding were cultivated for 19 days in an artificial climate chamber under the conditions of a temperature of 36° C. (day)/32° C. (night), a humidity of 50% (day)/60% (night), an illuminance of 7,000 lx, and a day length of 12 hours. […]
smiles,measurement,setting,value
"O=C(O)CCC(=O)NCCc1ccccc1 [compound A, 4-oxo-4-(2-phenylethyl)aminobutyric acid]",activity to promote growth of roots,roots,have activity to promote growth of roots
same,fruit setting rate vs non-treated group,[1],a decrease in fruit setting rate was remarkably alleviated
same,fresh weight of the above-ground part vs non-treated group,wheat (cultivar: Apogee) [2],increased
same,visual evaluation of high temperature stress-induced withering and dying vs non-treated group,wheat (cultivar: Apogee) [2],alleviation of high temperature stress-induced withering and dying was observed
"O=C([O-])CCC(=O)NCCc1ccccc1.[Na+] [Compound A, Na salt]",Percentage relative to non-treated group (fresh weight of the above-ground part),wheat (cultivar: Apogee) [3]; seed coating 0.5 mg/g of seeds,150%
same,Fresh weight of the above-ground part,wheat (cultivar: Apogee) [3]; seed coating 0.5 mg/g of seeds,0.87 g/3 seedlings
same,Percentage relative to non-treated group (fresh weight of the above-ground part),wheat (cultivar: Apogee) [3]; seed coating 1.0 mg/g of seeds,140%
same,Fresh weight of the above-ground part,wheat (cultivar: Apogee) [3]; seed coating 1.0 mg/g of seeds,0.77 g/3 seedlings
same,Percentage relative to non-treated group (fresh weight of the above-ground part),wheat (cultivar: Apogee) [3]; seed coating 2.0 mg/g of seeds,140%
same,Fresh weight of the above-ground part,wheat (cultivar: Apogee) [3]; seed coating 2.0 mg/g of seeds,0.81 g/3 seedlings
same,chlorophyll fluorescence (Fv/Fm) vs non-treated group,[4],increase
same,plant length vs non-treated group,[4],increase
same,weight of the above-ground part vs non-treated group,[4],increase
"COC(=O)CCC(=O)NCCc1ccccc1 [compound C, methyl 4-oxo-4-(2-phenylethyl)aminobutyrate]",fresh weight of the above-ground part vs non-treated group,wheat (cultivar: Apogee) [5],increased
"O=C(O)CCCC(=O)NCCc1c[nH]c2ccccc12 [compound E, 5-oxo-5-[2-(3-indolyl)ethyl]aminovaleric acid]",fresh weight of the above-ground part vs non-treated group,wheat (cultivar: Apogee) [5],increased
"COC(=O)CCC(=O)NCCCCc1ccccc1 [compound B, methyl 4-oxo-4-(4-phenylbutyl)aminobutyrate]",chlorophyll fluorescence (Fv/Fm) vs non-treated group,[4],increase
same,plant length vs non-treated group,[4],increase
same,weight of the above-ground part vs non-treated group,[4],increase
